Experiment [1] has as its system Mtb-KD. The experiment is classed as cell-based, Mycobacterium tuberculosis.
Experiment [2] has as its system clinical Mtb strains. Put plainly: microbe, parasite or virus in culture. It is filed as cell-based, Mycobacterium tuberculosis. To be noted: Mycobacterium tuberculosis; range over standard and clinical strains (abstract); read-out: MIC for the standard and clinical drug-resistant Mtb strains.

Converted amounts (≈) assume the structure as drawn.

As to `N[C@@H]1CON=C1O` [DCS, D-cycloserine, reference compound], in experiment [1], the “MIC, ddlA knocked-down” value worked out at 1 µg/mL (≈ 9.79 µM) and the “MIC, ddlA overexpressed” value was 32 µg/mL (≈ 313 µM).

With `OC1(c2ccc(OC(F)F)cc2)C[N+](c2ccccc2)=C2CCCCN21` (centres unmarked) [IMB-0283], in experiment [2], the MIC fell in the range of 0.25 to 4 µg/mL. Moreover, in experiment [1], the “MIC, ddlA knocked-down” value stood at 0.25 µg/mL and the “MIC, ddlA overexpressed” value came out at 2 µg/mL.
